Experimental data as given in paper PMC8070745, “FEN1 Blockade for Platinum Chemo-Sensitization and Synthetic Lethality in Epithelial Ovarian Cancers” (Cancers, 2021).

Assays:
[1] = tested on: PEO1 cells; experiment: γH2AX analysis, PEO1; format: cell-based, human; conditions: FEN1i monotherapy
Method: Graphical representation and statistical analysis of mean tail moment was performed in GraphPad Prism 6 (GraphPad, La Jolla, USA). All experiments were done in duplicate three times.
γH2AX FACS: For monitoring DNA double strand break accumulation by γH2AX FACS, 1.05×104 Cells/cm2 were seeded in 6-well plates and left overnight at 37°C in a 5% CO 2 atmosphere. Cisplatin (5µM) or FEN1i (10µM) was later added to cells and incubated for 24h and 48h at 37°C in a 5% CO2 atmosphere. Cells were collected by trypsinization, washed […]
(§1) with ice cold PBS and fixed in 70% ethanol for 1h at -20°C. After removal of the fixative solution by centrifugation, cells were stained with 2 µg/ml of phospho-Histone (γH2AX) Ser139 (16202A, Millipore, UK) to detect DSBs.
Cell cycle progression: Cells were treated with 20 µg/ml RNase A (12091021, Invitrogen) and then 10 µg/ml Propidium Iodide (P4170, Sigma Aldrich) was added to determine the cell cycle distribution. The samples were analysed on a Beckman-Coulter FC500 flow cytometer using a 488nm laser for excitation and emission data for PI collected using a 620nm bandpass filter (FL3) and a 525nm bandpass filter (FL1) for FITC-anti-phospho-Histone H2A.X. […]
Graphical representation and statistical analysis was performed in GraphPad Prism 7 (GraphPad, La Jolla, USA). […]

[2] = tested on: PEO4 spheroids; experiment: 3D spheroid assay, PEO4; format: cell-based, human; conditions: FEN1i/cisplatin combination vs cisplatin or FEN1i monotherapy
Method: as §1
Cell cycle progression: Cells were treated with 20 µg/ml RNase A (12091021, Invitrogen) and then 10 µg/ml Propidium Iodide (P4170, Sigma Aldrich) was added to determine the cell cycle distribution. The samples were analysed on a Beckman-Coulter FC500 flow cytometer using a 488nm laser for excitation and emission data for PI collected using a 620nm bandpass filter (FL3) and a 525nm bandpass filter (FL1) for FITC-anti-phospho-Histone H2A.X.
Apoptosis detection: Annexin V detection kit (556547, BD Biosciences) was used to quantify apoptotic cells. Briefly, cells were trypsinized, washed with PBS and the cellular pellet was re-suspended in Anexin Binding Buffer (1×). […] All the samples were analysed on a Beckman-Coulter FC500 flow cytometer. The percentage of apoptotic cells was determined (late apoptotic = FITC-Annexin V positive, PI positive early apoptotic = FITC-Annexin V positive, PI negative; live cells = FITC-Annexin V negative, PI negative) and compared for untreated and treated samples. […]
To quantify cell viability, LIVE/DEAD Viability/Cytotoxicity Kit (L3224, Thermo Fisher Scientific) was used. […] At least 10 spheroids were measured. […]

## Cc1csc2c1c(=O)n(O)c(=O)n2-c1ccccc1 [PTPD, 3-hydroxy-5-methyl-1-phenylthieno [2,3 d]pyrimidine-2,4(1H,3H)-dione]
[1]
  γH2AX foci: increased γH2AX foci accumulation
[2]
  cell death in 3D spheroids: increased cell death
